Reference: article PMC8910432 (International Journal of Molecular Sciences, 2022)
Like-named read-outs stand apart in the source and are kept apart here.

How the values were obtained:
3CLpro [1] = molecular target: T1, 3CLpro (Severe acute respiratory syndrome coronavirus 2, UniProt P0DTD1); conditions: cited from earlier work; for IC50: read-out: IC50 3CLpro
[2] = set-up: method as in PMID 12111394, PMID 16526653; conditions: ref 38, 39; cited from earlier work
3CLpro [3] = molecular target: T1, 3CLpro; conditions: FRET-based assay; cited from earlier work
3CLpro [4] = molecular target: T1, 3CLpro; format: binding; conditions: TA 10 to 500 µM, 30 min
SARS-CoV-2 3CLpro = SARS-CoV-2 3CLpro (Severe acute respiratory syndrome coronavirus 2, UniProt P0DTD1); test: biochemical; format: biochemical; conditions: for concentration from which inhibitory effect on 3CLpro activity is significant: tested 0.1 to 100 µM
3CLpro [5] = molecular target: T1, 3CLpro; test: biochemical; conditions: SPR, 1:1 binding model; read-out: KD TA/3CLpro
3CLpro [6] = molecular target: T1, 3CLpro; conditions: cited from earlier work; for binding free energy of 3CLpro: ref 66
mice = conditions: even at high dosages; cited from earlier work

Compound: O=C(O[C@H]1Cc2c(O)cc(O)cc2OC1c1cc(O)c(O)c2c(=O)c(O)cc(C3Oc4cc(O)cc(O)c4C[C@H]3O)cc12)c1cc(O)c(O)c(O)c1 (stereo partly drawn) [3-isotheaflavin-3-gallate, reference compound]
- IC50 (3CLpro [1]): 7000 nM

Compound: O=C(OC[C@H]1OC(OC(=O)c2cc(O)c(O)c(OC(=O)c3cc(O)c(O)c(O)c3)c2)[C@H](OC(=O)c2cc(O)c(O)c(OC(=O)c3cc(O)c(O)c(O)c3)c2)[C@@H](OC(=O)c2cc(O)c(O)c(OC(=O)c3cc(O)c(O)c(O)c3)c2)[C@@H]1OC(=O)c1cc(O)c(O)c(OC(=O)c2cc(O)c(O)c(O)c2)c1)c1cc(O)c(O)c(OC(=O)c2cc(O)c(O)c(O)c2)c1 (stereo partly drawn) [TA, 1,2,3,4,6-penta-O-{3,4-dihydroxy-5-((3,4,5-trihydroxybenzoyl)oxy)benzoyl}-D-glucopyranose]
- solubility in water [2]: highly soluble
- IC50 (3CLpro [3]): 13400 nM
- TA adsorption onto 3CLpro (QCMD) (3CLpro [4]): TA adsorption is observed to increase with higher TA concentrations
- reduction of 3CLpro activity (SARS-CoV-2 3CLpro; at 10 µM): up to 95%
- IC50 (SARS-CoV-2 3CLpro; this study): 1000 nM
- IC50 (3CLpro [1]; lower end of literature range): 2100 nM
- IC50 (3CLpro [1]): 3000 nM
- inhibition of 3CLpro activity (3CLpro [1]; ref 35, 36, 37): 100%
- IC50 (3CLpro [1]; upper end of literature range): 9000 nM
- Kd (3CLpro [5]): 57.5 nM

Compound: O=C(OC[C@H]1O[C@@H](OC(=O)c2cc(O)c(O)c(O)c2)[C@H](O)[C@@H](OC(=O)c2cc(O)c(O)c(O)c2)[C@@H]1O)c1cc(O)c(O)c(O)c1 [TGG, 1,3,6-tri-O-galloyl-β-D-glucose]
- concentration from which inhibitory effect on 3CLpro activity is significant (SARS-CoV-2 3CLpro): ≥ 50 µM

Compound: COc1ccc(-c2cc(=O)c3c(O)cc(O[C@@H]4O[C@H](CO[C@@H]5O[C@@H](C)[C@H](O)[C@@H](O)[C@H]5O)[C@@H](O)[C@H](O)[C@H]4O)cc3o2)cc1 [acaciin]
- free energy of the 3CLpro complex (3CLpro [6]; ref 67): -27.61 kcal/mol

Compound: O=c1cc(-c2ccc(O)c(-c3c(O)cc(O)c4c(=O)cc(-c5ccc(O)cc5)oc34)c2)oc2cc(O)cc(O)c12 [amentoflavone]
- binding free energy of 3CLpro (3CLpro [6]): -32.14 ± 4.73 kcal/mol

Compound: O=C(O[C@@H]1O[C@@H]2COC(=O)c3cc(O)c(O)c(O)c3-c3c(cc(O)c(O)c3O)C(=O)O[C@H]([C@H]1O)[C@@H]2O)c1cc(O)c(O)c(O)c1 [corilagin, β-1-O-galloyl-3,6-(R)-hexahydroxydiphenoyl-D-glucose]
- concentration from which inhibitory effect on 3CLpro activity is significant (SARS-CoV-2 3CLpro): ≥ 50 µM
- inhibition of 3CLpro activity (3CLpro [1]; ref 33): 88%
- toxicity in mice (mice): very low toxicity

Compound: CCC(CC)COC(=O)[C@H](C)N[P@](=O)(OC[C@H]1O[C@@](C#N)(c2ccc3c(N)ncnn23)[C@H](O)[C@@H]1O)Oc1ccccc1 [remdesivir]
- binding free energy of 3CLpro (3CLpro [6]): -26.67 ± 3.39 kcal/mol

Compound: C[C@@H]1O[C@@H](OC[C@H]2O[C@@H](Oc3c(-c4ccc(O)c(O)c4)oc4cc(O)cc(O)c4c3=O)[C@H](O)[C@@H](O)[C@@H]2O)[C@H](O)[C@H](O)[C@H]1O [rutin]
- binding free energy of 3CLpro (3CLpro [6]): -30.96 ± 5.56 kcal/mol

Compound: (−)-epicatechin-3-O-gallate [ECG]
- MMPBSA binding free energy with 3CLpro (3CLpro [6]; ref 33): -41.5 ± 5.1 kcal/mol
- MMPBSA binding free energy with 3CLpro (3CLpro [6]; ref 68): -46.03 ± 6.48 kcal/mol
- IC50 (3CLpro [1]): 847 ± 5 nM

Compound: cyanidin-3-O-glucoside
- MMPBSA binding free energy with 3CLpro (3CLpro [6]; protomer A): -50.8 kcal/mol
- MMPBSA binding free energy with 3CLpro (3CLpro [6]; protomer B): -42.1 kcal/mol
